Experimental data published in US7371372B2, “Compositions comprising IMPDH inhibitors and uses thereof for treating HCV infection” (Vertex Pharmaceuticals Incorporated, priority 2004, dated 2008).
In brackets after ≈: the same amount, converted by molar mass. Where two headings read alike, the source gives them in different places. Marks after values point to notes of the source that are not given here.

What was measured:
HCV [1] = details: 1000 mg BID with PEGASYS, cited from earlier work
[2] = anti-viral activity (IC50av); assay type: cell-based; details: for IC50: read-out: IC50av
Excerpt: The ratio of IC50av/IC50ap is the Conversion Factor (“CV”), useful in converting an anti-proliferative response into an anti-viral response.

[3] = cited from earlier work; for Cmin: estimated from Brunet et al.
IMPDH = details: estimated from Brunet et al.; cited from earlier work
[4] = system: peripheral blood lymphocytes (PBLs); experiment: anti-proliferative activity (IC50ap): inhibition of proliferation of peripheral blood lymphocytes; assay type: cell-based; details: for IC50: Lymphocyte
Excerpt: Our algorithm predicts that there exists an optimal balance between the antiproliferative activity and the antiviral activity for ribavirin in combination with IFN. […] Per our algorithm described above, a “conversion factor” of 12.25 needs to be applied to the APQ to account for antiviral effects as distinct from the antiproliferative effects of ribavirin. Thus the corrected APQ (i.e. AAQ) for ribavirin ranges from 0.3 to 1.6.

HCV [5] = experiment: Interferon alpha 2b (INTRON A) and VX-497 in naive HCV patients, four week study (VX-497-003); assay type: in vivo, human; details: for % HCV RNA drop: genotype 1 naive patients
Excerpt: Given the lower FQ for RBV in table 2 above, once again a surprising result of lower FQ giving better antiviral effects is seen.

[6] = plasma concentrations Cavg and Cmin of the IMPDH inhibitor in human; assay type: in vivo
Excerpt: An optimal composition according to the present invention comprises alpha-interferon or a derivative thereof, an IMPDH inhibitor and a pharmaceutical carrier, wherein said IMPDH inhibitor is present in said composition in an amount such that a ratio of Cavg/Cmin is between 1 to 10; • wherein: • Cavg is average steady-state plasma concentration produced by said IMPDH inhibitor in said human; and • Cmin is estimated trough concentration produced by said IMPDH inhibitor in said human.
Cavg is equal to AUC/T, wherein AUC is the area under the plasma concentration-time curve during a dosing interval of time T. Cavg and Cmin are readily determined by known techniques in the art. See, e.g., Gibaldi, M. and Perrier, D., Pharmacokinetics, 2nd Ed., Marcel Dekker, Inc. (1982); Khakoo, S. et al., Br. J. Clin. Pharmacol.46, pp. 563-570 (1998); Glue, P., Sem. Liver. Dis. 19, pp. 17-24 (1999).

HCV [7] = details: cited from earlier work; for sustained response (SR): IFN + ribavirin, two phase III trials; for HCV RNA drop: Ribavirin 600 mg BID with INTRON A, SR data from McHutchison and Poynard (1999)
[8] = Ribavirin 200 mg BID, estimated from literature kinetics
[9] = Ribavirin 400 mg BID, estimated from literature kinetics

## COc1c(C)c2c(c(O)c1C/C=C(\C)CCC(=O)OCCN1CCOCC1)C(=O)OC2 [mycophenolate mofetil]
HCV [1]; four-week analysis
  proportion of patients achieving significant antiviral effects, compared to PEGASYS and RBV: lower proportion of patients achieving significant antiviral effects

## COc1c(C)c2c(c(O)c1C/C=C(\C)CCC(=O)O)C(=O)OC2 [MPA, mycophenolic acid]
[2]; anti-viral activity, micromolar IC50 converted to ng/mL using molecular weight of 320
  IC50: 0.122 µg/mL (≈ 0.381 µM)
[3]; MPA 500 mg BID
  Cmin: 1630 ng/mL
[3]; MPA 500 mg BID, from Brunet et al.
  Cavg: 3163 ng/mL
[3]; MPA 750 mg BID
  Cmin: 1400 ng/mL
[3]; MPA 750 mg BID, from Brunet et al.
  Cavg: 3425 ng/mL
[3]; MPA 1000 mg BID
  Cmin: 2060 ng/mL
[3]; MPA 1000 mg BID, median AUC(0-t)/dosing interval from Brunet et al.
  Cavg: 3869 ng/mL
IMPDH
  IC50ap (ng/mL) in vivo: 10800 ng/mL (≈ 33.7 µM)
HCV [1]; non-responders to REBETRON with 90% genotype 1 patients
  % HCV RNA drop: 31^a, %
HCV [1]; relapsers on REBETRON with 79% genotype 1 patients
  % HCV RNA drop: 72^b %
[4]; in vitro, read-out: IC50ap (ng/mL) in vitro
  IC50: 32 ng/mL

## COc1cc(NC(=O)Nc2cccc(CNC(=O)O[C@H]3CCOC3)c2)ccc1-c1cnco1 [VX-497]
[2]; anti-viral activity, micromolar IC50 converted to ng/mL using molecular weight 452
  IC50av: 140 ng/mL (≈ 0.309 µM)
HCV [5]; VX-497 100 mg TID with INTRON A for 4 weeks
  % HCV RNA drop: 53%
HCV [5]; VX-497 300 mg TID with INTRON A for 4 weeks
  % HCV RNA drop: 50%
HCV [5]; with 3 MU IFN alpha 2b tiw, four weeks, baseline HCV RNA as covariate
  reduction in viral load, 100 mg TID compared with 300 mg TID: higher reduction in viral load
[4]
  IC50ap: 45 ng/mL

## NC(=O)c1ncn([C@@H]2O[C@H](CO)[C@@H](O)[C@H]2O)n1 [Ribavirin, ribavirin]
[6]; [8]
  Cavg: 3542 ng/mL
  Cmin: 740 ng/mL
[6]; [9]
  Cavg: 7083 ng/mL
  Cmin: 1450 ng/mL
[6]; Ribavirin 600 mg BID, estimated from literature kinetics
  Cmin: 2250 ng/mL
[6]; Ribavirin 600 mg BID, estimated from single dose kinetics (Glue) and accumulation factor (Khakoo), AUC(0-t)/dosing interval
  Cavg: 19000 ng/mL
HCV [7]; genotype 1 patients
  sustained response (SR): around 30%
HCV [7]; non-genotype 1 patients
  sustained response (SR): ~60%
HCV [7]; MTD of ribavirin
  hemolytic anemia: significant hemolytic anemia
HCV [7]; genotype 1
  HCV RNA drop: 30%^a,
HCV [7]; non-genotype 1
  HCV RNA drop: 60%^b
HCV [7]; to 600 mg daily, with IFN
  change in SR on dropping the ribavirin dose by one-half: no significant change in SR
[2]
  IC50: 12 µg/mL (≈ 49 µM)
[4]; read-out: IC50ap
  IC50: 976 ng/mL
